Assay results reported in US20130252956A1, “METHODS OF TREATING CANCER” (priority 2010, published 2013).

How the values were obtained:
[1] = Phase I dose escalation/expanded cohort study of oral foretinib in HCC patients: safety, dose-limiting toxicities, maximum tolerated dose; settings: human, in vivo
Experimental: Each treatment cycle will consist of 21 consecutive days. Subjects enrolled in this study will receive oral foretinib administered once daily. Blood samples for PK analysis will be obtained before and after dosing on Days 1 and 15 of Treatment Period 1 in both the Dose-Escalation and Expanded Cohort Phases. For subjects in the Expanded Cohort Phase, no dose will be administered on Days 2 and 3 of Treatment Period 1 to allow the pharmacokinetics of foretinib to be assessed over a 72 hour interval after the first dose. Subjects will continue to receive study drug until disease progression or withdrawal from study because of unacceptable toxicity or other reasons (e.g., withdrawal of consent, noncompliance). Disease progression is defined as objective disease progression according to mRECIST and/or clinical progression (e.g. emergence of significant new disease-related symptoms and/or significant deterioration of pre-existing disease-related symptoms requiring treatment; or deterioration of ECOG performance status by 2 units—see Appendix 3). For the purpose of the final analysis, the duration of the study is planned to be 2 years after enrollment is completed.
Patients with measurable unresectable/metastatic HCC, no prior sorafenib or other multi-kinase inhibitors, ECOG PS 0-1, adequate organ function and Child-Pugh grade A are eligible for enrolment. […]

[2] = test system: unresectable/metastatic HCC; assay: Antitumour activity (time to progression by modified RECIST) in patients dosed at the maximum tolerated dose; type: in vivo, human; settings: 38 evaluable patients at the maximum tolerated dose (30 mg OD); 95% confidence intervals (2.8, not achieved)
From the text: To enable a more accurate description of the potential clinical benefit of foretinib in patients with HCC, the method of tumor evaluation was changed to incorporate the mRECIST criteria for HCC as proposed by Llovet et al (Llovet, et al. 2008 supra) and further described by Lencioni & Llovet (Lencioni & Llovet Modified RECIST (mRECIST) Assessment for Hepatocellular Carcinoma. Seminars in Liver Disease. 2010; 30:52-60) in addition to the standard RECIST assessment.
The primary endpoint for assessing antitumor activity will be response rate (CR+PR) according to mRECIST (Lencioni, 2010), assessed by independent, central, radiological review, in subjects with advanced (unresectable and/or metastatic) HCC treated with foretinib at the maximum tolerated dose. […]
Tumor response for subjects with measurable lesions should be assessed routinely as specified in the table below. Serial CT-scans (preferred) or MRI will be evaluated for response (CR or PR) and SD according to mRECIST (Lecioni, 2010) and RECIST 1.0 (Therasse, et al. New guidelines to evaluate the response to treatment in solid tumors. European Organization for Research and Treatment of Cancer, National Cancer Institute of the United States, National Cancer Institute of Canada. J Natl Cancer Inst. 2000; 92:205-16.). […]

[3] = test system: first-line advanced HCC; settings: first-line advanced HCC patients treated with sorafenib; 95% CI (2.6, 3.6); cited from earlier work

COc1cc2c(Oc3ccc(NC(=O)C4(C(=O)Nc5ccc(F)cc5)CC4)cc3F)ccnc2cc1OCCCN1CCOCC1 [foretinib, N^1-{3-fluoro-4-[(6-(methyloxy)-7-{[3-(4-morpholinyl)propyl]oxy}-4-quinolinyl)oxy]phenyl}-N^1-(4-fluorophenyl)-1,1-cyclopropanedicarboxamide]
Dose-limiting toxicities [1]: no dose limiting toxicities were observed
Dose-limiting toxicities (renal failure, proteinuria), patients affected [1]: 2/6
Median time-to-progression using modified-RECIST [2]: 4.5 months

CNC(=O)c1cc(Oc2ccc(NC(=O)Nc3ccc(Cl)c(C(F)(F)F)c3)cc2)ccn1 [sorafenib, 4-[4-[[4-chloro-3-(trifluoromethyl)phenyl]carbamoylamino]phenoxy]-N-methyl-pyridine-2-carboxamide]
Median time to progression [3]: 2.8 months
